Data on 1 compound can be found in patent US4996214A, “Quinolinyl substituted phenyl/thioalkanoic acid substituted propionic acids and leucotriene antagonist use thereof” (SmithKline Beecham Corporation, priority 1990, dated 1991).

This assay concerns the target T1, LTD4 (Cavia porcellus, UniProt Q2NNR5).
T1 construct: tracheal spiral strips of approximate dimensions 2 to 3 mm cross-sectional width; from tissue; host or cells: guinea pig (adult male albino Hartley) tracheal spiral strips
T1 sequence (Q2NNR5 1-340): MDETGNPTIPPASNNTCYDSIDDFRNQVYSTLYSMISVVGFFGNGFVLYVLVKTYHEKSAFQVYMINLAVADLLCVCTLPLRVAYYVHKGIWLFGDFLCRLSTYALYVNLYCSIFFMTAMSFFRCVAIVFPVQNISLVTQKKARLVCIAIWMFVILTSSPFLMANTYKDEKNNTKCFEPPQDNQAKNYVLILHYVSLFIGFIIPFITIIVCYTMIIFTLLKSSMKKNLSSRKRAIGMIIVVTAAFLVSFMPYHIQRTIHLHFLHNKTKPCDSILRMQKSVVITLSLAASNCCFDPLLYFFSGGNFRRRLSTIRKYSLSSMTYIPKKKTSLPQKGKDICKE
The assay is described as follows: inhibition of leukotriene (LTD4) induced contraction of guinea pig tracheal tissues in vitro. It is filed as cell-based. The method, then:
The leukotriene antagonist activity of the compounds of this invention was measured by the ability of the compounds to inhibit the leukotriene induced contraction of guinea pig tracheal tissues in vitro. The following methodology was employed: In vitro: Guinea pig (adult male albino Hartley strain) tracheal spiral strips of approximate dimensions 2 to 3 mm cross-sectional width and 3.5 cm length were bathed in modified Krebs buffer in jacketed 10 ml tissue bath and continuously aerated with 95% O2 /5% CO2. The tissues were connected via silk suture to force displacement transducers for recording isometric tension. The tissues were equilibrated for 1 hour, pretreated for 15 minutes with meclofenamic acid ([…]) to remove intrinsic prostaglandin responses, and then pretreated for an additional 30 minutes with either the test compound or vehicle control. […]
Calculations: The averages of the triplicate LTD4 concentration-response curves both in the presence and absence of the test compound were plotted on log graph paper. The concentration of LTD4 needed to elicit 30% of the contraction elicited by carbachol was measured and defined as the EC30. The -log KB value for the test compound was determined by the following equations: [formula] […]
The antagonist activity of representative compounds of this invention is tabulated below. The -log KB values were calculated from the above test protocols. […]

Each structure is given as a SMILES string.

For orientation: Ki means the dissociation constant of the complex between target and ligand, obtained from inhibition or displacement. High values mean lower affinity, low ones higher affinity. For `O=C(O)CCSC(CC(=O)O)c1ccccc1CCCCCCCc1ccc2ccc(Cl)cc2n1` (centres unmarked) [3-{2-[7-(2-(7-Chloro)quinolinyl)heptyl]phenyl}-3,3'-thiodipropionic acid], the Kb (LTD4 concentration-response on guinea pig tracheal spiral strips, EC30 shift, 30 min pretreatment with test compound, read-out: pKB (-log KB) (converted)) is 31.6 nM. The same compound came in with a Ki (stated as 'in this assay', separate method not given) of 7.7 nM.
